#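 Grown in 96-well plates, cells were treated for 48 hours with each compound at five concentrations. Insufficient inhibition: endpoint recorded as highest concentration tested. The concentration for full growth arrest is given as TGI.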
# Columns and labels:
# Experiment in all cases: NCI anticancer screen, dose series, 48 h
# MOLT-4 leukemia = test system: MOLT-4 leukemia
# DMS 273 small cell lung = test system: DMS 273 small cell lung
# A549 NSCLC = test system: A549 NSCLC
# 786-0 renal = test system: 786-0 renal
# RXF 393 renal = test system: RXF 393 renal
# SW-620 colon = test system: SW-620 colon
# SR leukemia = test system: SR leukemia
# HT29 colon = test system: HT29 colon
# HCT-116 colon = test system: HCT-116 colon
# DMS 114 small cell lung = test system: DMS 114 small cell lung
# HOP-18 NSCLC = test system: HOP-18 NSCLC
# SK-MEL-5 melanoma = test system: SK-MEL-5 melanoma
# SNB-78 CNS = test system: SNB-78 CNS
# NCI-H23 lung = test system: NCI-H23 lung
# NCI-H460 lung = test system: NCI-H460 lung
# OVCAR-3 ovarian = test system: OVCAR-3 ovarian
# HOP-62 NSCLC = test system: HOP-62 NSCLC
# M19-MEL melanoma = test system: M19-MEL melanoma
# IGROV1 ovarian = test system: IGROV1 ovarian
# EKVX NSCLC = test system: EKVX NSCLC
# UACC-257 melanoma = test system: UACC-257 melanoma
# COLO 205 colon = test system: COLO 205 colon
# M14 melanoma = test system: M14 melanoma
# HCC-2998 colon = test system: HCC-2998 colon
# TK-10 renal = test system: TK-10 renal
# SN12C renal = test system: SN12C renal
# SF-295 CNS = test system: SF-295 CNS
# SNB-19 CNS = test system: SNB-19 CNS
# HCT-15 colon = test system: HCT-15 colon
# UO-31 renal = test system: UO-31 renal
# K-562 leukemia = test system: K-562 leukemia
# MALME-3M melanoma = test system: MALME-3M melanoma
# KM20L2 colon = test system: KM20L2 colon
# OVCAR-5 ovarian = test system: OVCAR-5 ovarian
# KM12 colon = test system: KM12 colon
# U251 CNS = test system: U251 CNS
# OVCAR-8 ovarian = test system: OVCAR-8 ovarian
# LOX IMVI melanoma = test system: LOX IMVI melanoma
# A498 renal = test system: A498 renal
# CCRF-CEM leukemia = test system: CCRF-CEM leukemia
# SF-539 CNS = test system: SF-539 CNS
# NCI-H522 lung = test system: NCI-H522 lung
# DLD-1 colon = test system: DLD-1 colon
# SK-OV-3 ovarian = test system: SK-OV-3 ovarian
# ACHN renal = test system: ACHN renal
# SK-MEL-2 melanoma = test system: SK-MEL-2 melanoma
# LXFL 529 NSCLC = test system: LXFL 529 NSCLC
# UACC-62 melanoma = test system: UACC-62 melanoma
# RPMI-8226 leukemia = test system: RPMI-8226 leukemia
# NCI-H226 lung = test system: NCI-H226 lung
# SNB-75 CNS = test system: SNB-75 CNS
# HL-60(TB) leukemia = test system: HL-60(TB) leukemia
# CAKI-1 renal = test system: CAKI-1 renal
# SF-268 CNS = test system: SF-268 CNS
# OVCAR-4 ovarian = test system: OVCAR-4 ovarian
# SK-MEL-28 melanoma = test system: SK-MEL-28 melanoma
# DU-145 prostate = test system: DU-145 prostate
# HOP-92 NSCLC = test system: HOP-92 NSCLC
structure (smiles),measurement,setting,value
CC(C)(C)C1CCN(C(=O)c2ccccc2)CC1,TGI,MOLT-4 leukemia,> 100 µM
same,TGI,DMS 273 small cell lung,> 100 µM
same,TGI,A549 NSCLC,> 100 µM
same,TGI,786-0 renal,> 100 µM
same,TGI,RXF 393 renal,> 100 µM
same,TGI,SW-620 colon,> 100 µM
same,TGI,SR leukemia,> 100 µM
same,TGI,HT29 colon,> 100 µM
same,TGI,HCT-116 colon,> 100 µM
same,TGI,DMS 114 small cell lung,98.8 µM
same,TGI,HOP-18 NSCLC,> 100 µM
same,TGI,SK-MEL-5 melanoma,> 100 µM
same,TGI,SNB-78 CNS,> 100 µM
same,TGI,NCI-H23 lung,> 100 µM
same,TGI,NCI-H460 lung,> 100 µM
same,TGI,OVCAR-3 ovarian,> 100 µM
same,TGI,HOP-62 NSCLC,> 100 µM
same,TGI,M19-MEL melanoma,> 100 µM
same,TGI,IGROV1 ovarian,> 100 µM
same,TGI,EKVX NSCLC,> 100 µM
same,TGI,UACC-257 melanoma,> 100 µM
same,TGI,COLO 205 colon,> 100 µM
same,TGI,M14 melanoma,> 100 µM
same,TGI,HCC-2998 colon,> 100 µM
same,TGI,TK-10 renal,> 100 µM
same,TGI,SN12C renal,> 100 µM
same,TGI,SF-295 CNS,> 100 µM
same,TGI,SNB-19 CNS,> 100 µM
same,TGI,HCT-15 colon,> 100 µM
same,TGI,UO-31 renal,> 100 µM
same,TGI,K-562 leukemia,> 100 µM
same,TGI,MALME-3M melanoma,> 100 µM
same,TGI,KM20L2 colon,> 100 µM
same,TGI,OVCAR-5 ovarian,> 100 µM
same,TGI,KM12 colon,> 100 µM
same,TGI,U251 CNS,> 100 µM
same,TGI,OVCAR-8 ovarian,> 100 µM
same,TGI,LOX IMVI melanoma,> 100 µM
same,TGI,A498 renal,> 100 µM
same,TGI,CCRF-CEM leukemia,> 100 µM
same,TGI,SF-539 CNS,> 100 µM
same,TGI,NCI-H522 lung,> 100 µM
same,TGI,DLD-1 colon,> 100 µM
same,TGI,SK-OV-3 ovarian,> 100 µM
same,TGI,ACHN renal,> 100 µM
same,TGI,SK-MEL-2 melanoma,> 100 µM
same,TGI,LXFL 529 NSCLC,> 100 µM
same,TGI,UACC-62 melanoma,> 100 µM
same,TGI,RPMI-8226 leukemia,> 100 µM
same,TGI,NCI-H226 lung,> 100 µM
same,TGI,SNB-75 CNS,> 100 µM
same,TGI,HL-60(TB) leukemia,> 100 µM
O=c1nc2[nH]nc(-c3ccccc3)c2n[nH]1,TGI,MOLT-4 leukemia,> 100 µM
same,TGI,DMS 273 small cell lung,> 100 µM
same,TGI,A549 NSCLC,> 100 µM
same,TGI,786-0 renal,52 µM
same,TGI,RXF 393 renal,> 100 µM
same,TGI,SW-620 colon,> 100 µM
same,TGI,SR leukemia,> 100 µM
same,TGI,CAKI-1 renal,> 100 µM
same,TGI,HT29 colon,> 100 µM
same,TGI,HCT-116 colon,> 100 µM
same,TGI,DMS 114 small cell lung,> 100 µM
same,TGI,SNB-78 CNS,> 100 µM
same,TGI,NCI-H23 lung,> 100 µM
same,TGI,NCI-H460 lung,> 100 µM
same,TGI,OVCAR-3 ovarian,> 100 µM
same,TGI,HOP-62 NSCLC,> 100 µM
same,TGI,IGROV1 ovarian,> 100 µM
same,TGI,EKVX NSCLC,> 100 µM
same,TGI,UACC-257 melanoma,> 100 µM
same,TGI,COLO 205 colon,> 100 µM
same,TGI,M14 melanoma,> 100 µM
same,TGI,HCC-2998 colon,> 100 µM
same,TGI,TK-10 renal,> 100 µM
same,TGI,SN12C renal,> 100 µM
same,TGI,SF-268 CNS,> 100 µM
same,TGI,SF-295 CNS,> 100 µM
same,TGI,SNB-19 CNS,> 100 µM
same,TGI,OVCAR-4 ovarian,> 100 µM
same,TGI,HCT-15 colon,> 100 µM
same,TGI,SK-MEL-28 melanoma,> 100 µM
same,TGI,UO-31 renal,> 100 µM
same,TGI,K-562 leukemia,> 100 µM
same,TGI,KM20L2 colon,> 100 µM
same,TGI,OVCAR-5 ovarian,> 100 µM
same,TGI,KM12 colon,> 100 µM
same,TGI,U251 CNS,> 100 µM
same,TGI,OVCAR-8 ovarian,> 100 µM
same,TGI,LOX IMVI melanoma,> 100 µM
same,TGI,A498 renal,> 100 µM
same,TGI,CCRF-CEM leukemia,> 100 µM
same,TGI,SF-539 CNS,36.4 µM
same,TGI,NCI-H522 lung,> 100 µM
same,TGI,DLD-1 colon,> 100 µM
same,TGI,ACHN renal,> 100 µM
same,TGI,SK-MEL-2 melanoma,> 100 µM
same,TGI,LXFL 529 NSCLC,> 100 µM
same,TGI,UACC-62 melanoma,> 100 µM
same,TGI,RPMI-8226 leukemia,> 100 µM
same,TGI,NCI-H226 lung,> 100 µM
same,TGI,HL-60(TB) leukemia,> 100 µM
COC(=O)[C@]1(C)CCC[C@]2(C)C3CC4OOC3(C=C4C(C)C)CCC21 (stereo partly specified),TGI,MOLT-4 leukemia,49.8 µM
same,TGI,DMS 273 small cell lung,34.5 µM
same,TGI,A549 NSCLC,33.9 µM
same,TGI,786-0 renal,17.6 µM
same,TGI,SW-620 colon,34.8 µM
same,TGI,SR leukemia,26.6 µM
same,TGI,CAKI-1 renal,62.3 µM
same,TGI,HT29 colon,29.4 µM
same,TGI,HCT-116 colon,29 µM
same,TGI,DMS 114 small cell lung,28 µM
same,TGI,SK-MEL-5 melanoma,29.6 µM
same,TGI,SNB-78 CNS,32.3 µM
same,TGI,NCI-H23 lung,32.8 µM
same,TGI,NCI-H460 lung,25.7 µM
same,TGI,OVCAR-3 ovarian,76.6 µM
same,TGI,HOP-62 NSCLC,61.5 µM
same,TGI,IGROV1 ovarian,35.7 µM
same,TGI,EKVX NSCLC,30.4 µM
same,TGI,UACC-257 melanoma,32 µM
same,TGI,COLO 205 colon,39.4 µM
same,TGI,M14 melanoma,30.4 µM
same,TGI,HCC-2998 colon,30.4 µM
same,TGI,TK-10 renal,82.1 µM
same,TGI,SN12C renal,31.7 µM
same,TGI,SF-268 CNS,30.1 µM
same,TGI,SF-295 CNS,31.3 µM
same,TGI,SNB-19 CNS,31.3 µM
same,TGI,OVCAR-4 ovarian,45.7 µM
same,TGI,HCT-15 colon,30.1 µM
same,TGI,UO-31 renal,30.3 µM
same,TGI,K-562 leukemia,33.7 µM
same,TGI,MALME-3M melanoma,41.6 µM
same,TGI,KM20L2 colon,32 µM
same,TGI,OVCAR-5 ovarian,41.5 µM
same,TGI,KM12 colon,32.4 µM
same,TGI,U251 CNS,37.1 µM
same,TGI,OVCAR-8 ovarian,41.8 µM
same,TGI,LOX IMVI melanoma,11.5 µM
same,TGI,A498 renal,23.5 µM
same,TGI,CCRF-CEM leukemia,14 µM
same,TGI,SF-539 CNS,30.7 µM
same,TGI,NCI-H522 lung,3.41 µM
same,TGI,DLD-1 colon,29.1 µM
same,TGI,SK-OV-3 ovarian,34.4 µM
same,TGI,ACHN renal,31.2 µM
same,TGI,SK-MEL-2 melanoma,31.5 µM
same,TGI,LXFL 529 NSCLC,27.2 µM
same,TGI,UACC-62 melanoma,32.3 µM
same,TGI,RPMI-8226 leukemia,36 µM
same,TGI,NCI-H226 lung,35.4 µM
same,TGI,HL-60(TB) leukemia,4.15 µM
O=CN/C=C/c1ccccc1O,TGI,MOLT-4 leukemia,> 100 µM
same,TGI,DMS 273 small cell lung,> 100 µM
same,TGI,A549 NSCLC,> 100 µM
same,TGI,786-0 renal,> 100 µM
same,TGI,RXF 393 renal,> 100 µM
same,TGI,SW-620 colon,> 100 µM
same,TGI,SR leukemia,> 100 µM
same,TGI,DU-145 prostate,> 100 µM
same,TGI,CAKI-1 renal,> 100 µM
same,TGI,HT29 colon,> 100 µM
same,TGI,HCT-116 colon,> 100 µM
same,TGI,DMS 114 small cell lung,> 100 µM
same,TGI,HOP-18 NSCLC,> 100 µM
same,TGI,SK-MEL-5 melanoma,> 100 µM
same,TGI,SNB-78 CNS,> 100 µM
same,TGI,NCI-H23 lung,> 100 µM
same,TGI,NCI-H460 lung,> 100 µM
same,TGI,OVCAR-3 ovarian,> 100 µM
same,TGI,HOP-62 NSCLC,> 100 µM
same,TGI,M19-MEL melanoma,> 100 µM
same,TGI,IGROV1 ovarian,> 100 µM
same,TGI,EKVX NSCLC,> 100 µM
same,TGI,UACC-257 melanoma,> 100 µM
same,TGI,COLO 205 colon,> 100 µM
same,TGI,M14 melanoma,> 100 µM
same,TGI,HCC-2998 colon,> 100 µM
same,TGI,TK-10 renal,> 100 µM
same,TGI,SN12C renal,> 100 µM
same,TGI,SF-268 CNS,> 100 µM
same,TGI,SF-295 CNS,> 100 µM
same,TGI,SNB-19 CNS,> 100 µM
same,TGI,OVCAR-4 ovarian,> 100 µM
same,TGI,HCT-15 colon,> 100 µM
same,TGI,SK-MEL-28 melanoma,> 100 µM
same,TGI,HOP-92 NSCLC,> 100 µM
same,TGI,UO-31 renal,> 100 µM
same,TGI,K-562 leukemia,> 31.6 µM
same,TGI,MALME-3M melanoma,> 100 µM
same,TGI,KM20L2 colon,> 100 µM
same,TGI,OVCAR-5 ovarian,> 100 µM
same,TGI,KM12 colon,> 100 µM
same,TGI,U251 CNS,> 100 µM
same,TGI,OVCAR-8 ovarian,> 100 µM
same,TGI,LOX IMVI melanoma,> 100 µM
same,TGI,A498 renal,> 100 µM
same,TGI,CCRF-CEM leukemia,> 100 µM
same,TGI,SF-539 CNS,> 100 µM
same,TGI,NCI-H522 lung,> 100 µM
same,TGI,DLD-1 colon,> 100 µM
same,TGI,SK-OV-3 ovarian,> 100 µM
same,TGI,ACHN renal,> 100 µM
same,TGI,SK-MEL-2 melanoma,> 100 µM
same,TGI,LXFL 529 NSCLC,> 100 µM
same,TGI,UACC-62 melanoma,> 100 µM
same,TGI,RPMI-8226 leukemia,> 100 µM
same,TGI,NCI-H226 lung,> 100 µM
same,TGI,SNB-75 CNS,> 100 µM
same,TGI,HL-60(TB) leukemia,> 100 µM

# Source: PubChem BioAssay (NCI)
